According to ChEMBL document CHEMBL1129777, “Novel 6-substituted 2-aminotetralins with potent and selective affinity for the dopamine D3 receptor” (Bioorg Med Chem Lett, 1996):

Columns and labels:
[1] = target: D(3) dopamine receptor (Homo sapiens, UniProt P35462); test: Binding affinity against human Dopamine receptor D3 in Chinese hamster ovary cells using [3H]spiperone.; format: cell-based
[2] = target: D(2) dopamine receptor (Homo sapiens, UniProt P14416); test: Binding affinity against human Dopamine receptor D2 in mouse LtK- cells using [3H]spiperone.; format: cell-based
D(2) dopamine receptor, sequence (P14416 whole entry): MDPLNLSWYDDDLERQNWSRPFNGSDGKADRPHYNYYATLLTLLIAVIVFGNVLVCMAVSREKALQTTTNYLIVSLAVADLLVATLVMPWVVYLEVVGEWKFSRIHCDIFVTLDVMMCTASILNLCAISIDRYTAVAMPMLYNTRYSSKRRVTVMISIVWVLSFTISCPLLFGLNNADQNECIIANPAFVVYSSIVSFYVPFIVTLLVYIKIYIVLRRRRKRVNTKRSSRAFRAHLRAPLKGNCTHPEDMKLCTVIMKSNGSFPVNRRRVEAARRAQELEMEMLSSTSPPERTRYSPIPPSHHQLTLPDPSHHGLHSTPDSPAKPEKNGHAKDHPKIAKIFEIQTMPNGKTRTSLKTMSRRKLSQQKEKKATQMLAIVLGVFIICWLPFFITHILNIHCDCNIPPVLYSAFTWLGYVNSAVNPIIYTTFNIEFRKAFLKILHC

D(3) dopamine receptor, sequence (P35462 whole entry): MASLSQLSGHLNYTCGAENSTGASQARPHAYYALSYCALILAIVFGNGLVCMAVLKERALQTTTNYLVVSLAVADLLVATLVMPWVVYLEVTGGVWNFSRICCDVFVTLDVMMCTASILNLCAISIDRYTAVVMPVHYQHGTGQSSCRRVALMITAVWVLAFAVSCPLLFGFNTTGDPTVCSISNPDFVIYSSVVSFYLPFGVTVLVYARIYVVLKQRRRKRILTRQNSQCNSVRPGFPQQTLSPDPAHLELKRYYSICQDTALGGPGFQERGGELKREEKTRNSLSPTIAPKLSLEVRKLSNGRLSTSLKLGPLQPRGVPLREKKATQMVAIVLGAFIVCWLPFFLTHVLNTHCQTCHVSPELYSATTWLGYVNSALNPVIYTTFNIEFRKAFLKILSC

Row | SMILES | Ki [1] [nM] | Ki [2] [nM]
1 | CCCN(CCC)[C@@H]1CCc2c(ccc(C(O)Cc3ccc(Cl)c(Cl)c3)c2OC)C1 (stereo not given in full) | 20 | 
2 | CCCN(CCC)C1CCc2cc(CCc3ccccc3)ccc2C1 (stereo not given) | 3.98 | 398
3 | CCCN(CCC)C1CCc2cc(CCc3ccc(O)cc3)ccc2C1 (stereo not given) | 12.6 | 316
4 | CCCN(CCC)[C@@H]1CCc2c(ccc(CCc3ccccc3)c2OC)C1 | 20 | 
5 | CCCN(CCC)[C@@H]1CCc2c(ccc(C(O)Cc3ccc(Cl)cc3)c2OC)C1 (stereo in doubt) | 50.1 | 1260
6 | CCCN(CCC)[C@@H]1CCc2c(ccc(C(O)Cc3ccccc3)c2OC)C1 (stereo not given in full) | 63.1 | 1000
7 | CCCN(CCC)C1CCc2cc(CCc3ccc(C(C)=O)cc3)ccc2C1 (stereo not given) | 3.98 | 1000
8 | CCCN(CCC)[C@@H]1CCc2c(ccc(C(O)Cc3ccc(OC)cc3)c2OC)C1 (stereo not given in full) | 50.1 | 
9 | CCCN(CCC)C1CCc2cc(CCc3ccc(/C(C)=N\O)cc3)ccc2C1 (stereo not given) | 2 | 794
10 | CCCN(CCC)C1CCc2cc(CCc3ccc(C(N)=O)cc3)ccc2C1 (stereo not given) | 631 | 
11 | CCCN(CCC)C1CCc2cc(CN(C(N)=O)c3ccc(OC)cc3)ccc2C1 (stereo not given) | 25.1 | 6310
12 | CCCN(CCC)[C@@H]1CCc2cc(CCc3ccc(Cl)cc3)ccc2C1 | 3.98 | 398
13 | CCCN(CCC)[C@H]1CCc2cc(CCc3ccc(Cl)cc3)ccc2C1 | 10 | 126
14 | CCCN(CCC)C1CCc2cc(CCc3ccc(C(=O)OCC)cc3)ccc2C1 (stereo not given) | 2 | 251
15 | CCCN(CCC)[C@@H]1CCc2cc(CS(=O)(=O)c3ccc(OC)cc3)ccc2C1 | 1.26 | 501
16 | CCCN(CCC)[C@@H]1CCc2cc(CCc3ccc(/C(C)=N\O)cc3)ccc2C1 | 1 | 316

Row | SMILES | Ki [1] [nM] | Ki [2] [nM]
17 | CCCN(CCC)C1CCc2cc(CS(=O)(=O)c3ccc(OC)cc3)ccc2C1 (stereo not given) | 1.58 | 631
18 | CCCN(CCC)[C@@H]1CCc2c(ccc(C(O)Cc3ccc(Cl)cc3)c2OC)[C@@H]1C (stereo not given in full) | 25.1 | 631
19 | CCCN(CCC)[C@@H]1CCc2cc(CS(=O)(=O)c3ccc(I)cc3)ccc2C1 | 0.158 | 200
20 | CCCN(CCC)C1CCc2cc(CCc3ccc(S(C)(=O)=O)cc3)ccc2C1 (stereo not given) | 1580 | 
21 | CCCN(CCC)[C@@H]1CCc2c(ccc(CCc3ccc(C(F)(F)F)cc3)c2OC)C1 | 6.31 | 100
22 | CCCN(CCC)C1CCc2cc(CCc3ccc(C(=O)O)cc3)ccc2C1 (stereo not given) | 3160 | 
23 | CCCN(CCC)[C@@H]1CCc2c(ccc(C(O)Cc3ccc(Cl)cc3)c2OC)C1 (single isomer, unassigned; isomer I) | 6.31 | 316
24 | CCCN(CCC)C1CCc2cc(CSc3ccc(OC)cc3)ccc2C1 (stereo not given) | 1.26 | 200
25 | CCCN(CCC)C1CCc2cc(CCc3ccc(OC)cc3)ccc2C1 (stereo not given) | 3.16 | 251
26 | CCCN(CCC)[C@@H]1CCc2c(ccc(CCc3ccc(Cl)cc3)c2OC)C1 | 5.01 | 126
27 | CCCN(CCC)C1CCc2cc(CN(C(=O)OC)c3ccc(OC)cc3)ccc2C1 (stereo not given) | 6.31 | 794
28 | CCCN(CCC)[C@@H]1CCc2c(ccc(CCc3ccc(NS(C)(=O)=O)cc3)c2OC)C1 | 501 | 
29 | CCCN(CCC)[C@@H]1CCc2cc(CCc3ccc(C(C)=O)cc3)ccc2C1 | 3.16 | 794
30 | CCCN(CCC)[C@@H]1CCc2c(OC)cccc2[C@@H]1C | 12.6 | 63.1
31 | CCCN(CCC)C1CCc2cc(CN(C(C)=O)c3ccc(OC)cc3)ccc2C1 (stereo not given) | 7.94 | 631
